Data: the supplement of paper PMC10307832

Experiments:
Assay in all cases: relative viability (nuclei count vs DMSO), 5 days (fraction); higher = more cells survive
[1] = compound: C1=CC=C(C(=C1)C2=CC=C(C=C2)C3=CSC4=C3C(=C(C(=O)N4)C#N)O)O + C[C@]1(O)C[C@@H](c2nc(-c3ccc4ccc(-c5ccccc5)nc4c3)c3c(N)nccn32)C1 [Linsitinib] (partner 1 µM)
Method in brief: (§1)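 Lung cancer cell lines, seeded in 1536-well plates, were treated the following day by pin tool with a single drug or with five library-drug doses (not always all listed) in √10 steps on top of a fixed anchor-drug dose. Cells were fixed and nuclei stained in one step after 5 days, and nuclei were counted. Relative viability is the nuclei count for treated wells divided by that for vehicle wells, reported as medians of duplicate plates.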

[2] = compound: C1=CC=C(C(=C1)C2=CC=C(C=C2)C3=CSC4=C3C(=C(C(=O)N4)C#N)O)O + O=C(c1cc(Cc2n[nH]c(=O)c3ccccc23)ccc1F)N1CCN(C(=O)C2CC2)CC1 [Olaparib] (partner 8 µM)
Method in brief: as §1

TGX 221 + Lapatinib = compound: CC1=CN2C(=O)C=C(N=C2C(=C1)C(C)NC3=CC=CC=C3)N4CCOCC4 [TGX 221] + CS(=O)(=O)CCNCc1ccc(-c2ccc3ncnc(Nc4ccc(OCc5cccc(F)c5)c(Cl)c4)c3c2)o1 [Lapatinib] (partner 2 µM)
Method in brief: as §1

[3] = compound: O=C(CCCCCCNC(=O)c1cnc(N(c2ccccc2)c2ccccc2)nc1)NO [Ricolinostat] + C[C@@H](Oc1cc(-c2cnn(C3CCNCC3)c2)cnc1N)c1c(Cl)ccc(F)c1Cl [Crizotinib] (partner 1 µM)
Method in brief: as §1

NCI-H1792
relative viability ([1]; first compound 0.253 µM): 0.436 | relative viability ([1]; first compound 0.8 µM): 0.542 | relative viability ([1]; first compound 2.53 µM): 0.474 | relative viability ([1]; first compound 8 µM): 0.317 | relative viability ([2]; first compound 0.253 µM): 0.324 | relative viability ([2]; first compound 0.8 µM): 0.365 | relative viability ([2]; first compound 2.53 µM): 0.317 | relative viability ([2]; first compound 8 µM): 0.389 | relative viability (TGX 221 + Lapatinib; first compound 0.08 µM): 0.782 | relative viability (TGX 221 + Lapatinib; first compound 0.253 µM): 0.983 | relative viability (TGX 221 + Lapatinib; first compound 0.8 µM): 0.814 | relative viability (TGX 221 + Lapatinib; first compound 2.53 µM): 0.846 | relative viability (TGX 221 + Lapatinib; first compound 8 µM): 0.887 | relative viability ([3]; first compound 0.08 µM): 0.849 | relative viability ([3]; first compound 0.253 µM): 0.988 | relative viability ([3]; first compound 0.8 µM): 0.913 | relative viability ([3]; first compound 2.53 µM): 1
